Source: the supplement of paper PMC11061612

How the values were obtained:
Assay in all cases: combination Emax (second highest fraction inhibited in the dose matrix, 72 h); higher = more inhibition; extreme values may be limits of the assay
[1] = system: TE-1 (Esophageal Squamous Cell Carcinoma)
In short: (§1)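 Bliss excess equals the observed combination effect minus the expected value EA + EB − EA·EB, where EA and EB are the effects of each agent alone. Combination Emax is the second-highest inhibition within the matrix. Inhibition was scaled from CellTiter-Glo 2.0 luminescence, with 0 set by vehicle wells and 1 by blank wells, after 72 hours of two-drug dosing of cells plated in 1536-well plates.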

EW-24 (Ewing's Sarcoma) = system: EW-24 (Ewing's Sarcoma)
In short: as §1

[2] = system: NCI-H1915 (Non-Small Cell Lung Carcinoma)
In short: as §1

[3] = system: NUGC-3 (Gastric Carcinoma)
In short: as §1

[4] = system: KARPAS-299 (T-Cell Non-Hodgkin's Lymphoma)
In short: as §1

[5] = system: NEC8 (Other Solid Carcinomas)
In short: as §1

[6] = system: VA-ES-BJ (Other Solid Carcinomas)
In short: as §1

[7] = system: KYSE-450 (Esophageal Squamous Cell Carcinoma)
In short: as §1

[8] = system: HSC-4 (Oral Cavity Carcinoma)
In short: as §1

[9] = system: AMO-1 (Plasma Cell Myeloma)
In short: as §1

[10] = system: C-4-I (Cervical Carcinoma)
In short: as §1

UACC-62 (Melanoma) = system: UACC-62 (Melanoma)
In short: as §1

[11] = system: SCC-15 (Oral Cavity Carcinoma)
In short: as §1

[12] = system: KMOE-2 (Acute Myeloid Leukemia)
In short: as §1

[13] = system: LU-65 (Non-Small Cell Lung Carcinoma)
In short: as §1

[14] = system: EoL-1-cell (Acute Myeloid Leukemia)
In short: as §1

[15] = system: Hs-766T (Pancreatic Carcinoma)
In short: as §1

[16] = system: NCI-H358 (Lung Adenocarcinoma)
In short: as §1

PWR-1E (Non-Cancerous) = system: PWR-1E (Non-Cancerous)
In short: as §1

[17] = system: SW13 (Other Solid Carcinomas)
In short: as §1

Row | Compound | combination Emax [1] | combination Emax (EW-24 (Ewing's Sarcoma)) | combination Emax [2] | combination Emax [3] | combination Emax [4] | combination Emax [5] | combination Emax [6] | combination Emax [7] | combination Emax [8] | combination Emax [9] | combination Emax [10] | combination Emax (UACC-62 (Melanoma)) | combination Emax [11] | combination Emax [12] | combination Emax [13] | combination Emax [14] | combination Emax [15] | combination Emax [16] | combination Emax (PWR-1E (Non-Cancerous)) | combination Emax [17]
1 | NC1(C(=O)N[C@@H](CCO)c2ccc(Cl)cc2)CCN(c2ncnc3[nH]ccc23)CC1 [Capivasertib] + CCN(CCO)CCCOc1ccc2c(Nc3cc(CC(=O)Nc4cccc(F)c4)[nH]n3)ncnc2c1 [AZD2811] (first compound max 10 µM, 7x7, partner max 1 µM) | 0.383 | 0.659 | 0.334 | 0.448 | 0.337 | 0.199 | 0.49 | 0.414 | 0.514 | 0.769 | 0.402 | 0.556 | 0.334 | 0.489 | 0.461 | 1 | 0.23 | 0.394 | 0.713 | 0.515
2 | CCc1c2c(nc3ccc(O)cc13)-c1cc3c(c(=O)n1C2)COC(=O)[C@]3(O)CC [SN-38] + CN(C)CCCOc1ccc(-c2ccc3ncc4c(c3c2)n(C2CCOCC2)c(=O)n4C)cn1 [AZD0156] (first compound max 0.3 µM, 7x7, partner max 1 µM) | 0.522 | 0.781 | 0.609 | 0.984 | 0.924 | 0.99 | 0.875 | 0.767 | 0.804 | 0.9 | 0.932 | 0.891 | 0.709 | 0.945 | 0.836 | 0.995 | 0.39 | 0.722 | 0.946 | 0.988
3 | Cc1c2c(nn1C)CSCc1cc(n(C)n1)CSc1cc(c3ccccc3c1)OCCCc1c(C(=O)O)n(C)c3c-2c(Cl)ccc13 [AZD5991] + CCN(CCO)CCCOc1ccc2c(Nc3cc(CC(=O)Nc4cccc(F)c4)[nH]n3)ncnc2c1 [AZD2811] (first compound max 1 µM, 7x7, partner max 1 µM) | 0.676 | 0.383 | 0.294 | 0.391 | 0.987 | 0.33 | 0.395 | 0.54 | 0.404 | 1 | 1 | 0.887 | 0.307 | 0.759 | 0.343 | 1 | 0.346 | 0.403 | 0.939 | 0.964
4 | Cc1c2c(nn1C)CSCc1cc(n(C)n1)CSc1cc(c3ccccc3c1)OCCCc1c(C(=O)O)n(C)c3c-2c(Cl)ccc13 [AZD5991] + CC1(C)CCC(CN2CCN(c3ccc(C(=O)NS(=O)(=O)c4ccc(NCC5CCOCC5)c([N+](=O)[O-])c4)c(Oc4cnc5[nH]ccc5c4)c3)CC2)=C(c2ccc(Cl)cc2)C1 [Venetoclax] (first compound max 1 µM, 7x7, partner max 1 µM) | 0.65 | 0.38 | 0.187 | 0.196 | 0.968 | 0.793 | 0.145 | 0.189 | 0.142 | 1 | 0.976 | 0.962 | 0.236 | 0.709 | 0.393 | 1 | 0.184 | 0.217 | 0.199 | 0.927
5 | NC1(C(=O)N[C@@H](CCO)c2ccc(Cl)cc2)CCN(c2ncnc3[nH]ccc23)CC1 [Capivasertib] + CC(C)n1c(=O)n(C)c2cnc3cc(F)c(-c4ccc(OCCCN5CCCCC5)nc4)cc3c21 [AZD1390] (first compound max 10 µM, 7x7, partner max 0.3 µM) | 0.153 | 0.407 | 0.287 | 0.339 | 0.376 | 0.144 | 0.307 | 0.306 | 0.337 | 0.633 | 0.237 | 0.572 | 0.227 | 0.33 | 0.401 | 0.874 | 0.209 | 0.374 | 0.4 | 0.35
6 | Cn1cnc2c(F)c(Nc3ccc(Br)cc3Cl)c(C(=O)NOCCO)cc21 [Selumetinib] + CC(C)n1c(=O)n(C)c2cnc3cc(F)c(-c4ccc(OCCCN5CCCCC5)nc4)cc3c21 [AZD1390] (first compound max 10 µM, 7x7, partner max 0.3 µM) | 0.384 | 0.132 | 0.641 | 0.328 | 0.347 | 0.0259 | 0.129 | 0.0763 | 0.132 | 0.364 | 0.26 | 0.787 | 0.176 | 0.976 | 0.598 | 0.762 | 0.475 | 0.444 | 0.131 | 0.401
7 | COc1cccc(OCCCN)c1-c1cc(Nc2cnc(C#N)cn2)n[nH]1 [Prexasertib] + CN(C)CCCOc1ccc(-c2ccc3ncc4c(c3c2)n(C2CCOCC2)c(=O)n4C)cn1 [AZD0156] (first compound max 1 µM, 7x7, partner max 1 µM) | 0.71 | 0.68 | 0.588 | 0.726 | 0.983 | 0.986 | 0.766 | 0.615 | 0.604 | 0.98 | 0.915 | 0.828 | 0.617 | 0.945 | 0.761 | 0.998 | 0.665 | 0.775 | 0.953 | 0.322
8 | CCN(CCO)CCCOc1ccc2c(Nc3cc(CC(=O)Nc4cccc(F)c4)[nH]n3)ncnc2c1 [AZD2811] + C[C@@H]1COCCN1C2=NC(=NC(=C2)C3(CC3)[S@](=N)(=O)C)C4=C5C=CNC5=NC=C4 [AZD6738] (first compound max 1 µM, 7x7, partner max 10 µM) | 0.449 | 0.567 | 0.325 | 0.697 | 0.936 | 0.649 | 0.696 | 0.63 | 0.677 | 0.859 | 0.841 | 0.519 | 0.437 | 0.615 | 0.668 | 1 | 0.547 | 0.55 | 0.908 | 0.537
9 | Cc1c2c(nn1C)CSCc1cc(n(C)n1)CSc1cc(c3ccccc3c1)OCCCc1c(C(=O)O)n(C)c3c-2c(Cl)ccc13 [AZD5991] + Cn1cnc2c(F)c(Nc3ccc(Br)cc3Cl)c(C(=O)NOCCO)cc21 [Selumetinib] (first compound max 1 µM, 7x7, partner max 3 µM) | 0.655 | 0.214 | 0.568 | 0.355 | 0.992 | 0.383 | 0.184 | 0.331 | 0.278 | 1 | 1 | 0.998 | 0.322 | 1 | 0.716 | 1 | 0.595 | 0.485 | 0.21 | 0.828
10 | CN(C)CCCOc1ccc(-c2ccc3ncc4c(c3c2)n(C2CCOCC2)c(=O)n4C)cn1 [AZD0156] + CCN(CCO)CCCOc1ccc2c(Nc3cc(CC(=O)Nc4cccc(F)c4)[nH]n3)ncnc2c1 [AZD2811] (first compound max 1 µM, 7x7, partner max 1 µM) | 0.254 | 0.302 | 0.299 | 0.322 | 0.243 | 0.146 | 0.245 | 0.193 | 0.0498 | 0.312 | 0.147 | 0.188 | 0.201 | 0.21 | 0.281 | 0.999 | 0.0844 | 0.157 | 0.626 | 0.407
11 | CC(=O)c1c(C)c2cnc(Nc3ccc(N4CCNCC4)cn3)nc2n(C2CCCC2)c1=O [Palbociclib] + Cc1c2c(nn1C)CSCc1cc(n(C)n1)CSc1cc(c3ccccc3c1)OCCCc1c(C(=O)O)n(C)c3c-2c(Cl)ccc13 [AZD5991] (first compound max 10 µM, 7x7, partner max 1 µM) | 0.194 | 0.577 | 0.447 | 0.572 | 0.968 | 0.277 | 0.283 | 0.263 | 0.106 | 1 | 0.896 | 0.588 | 0.191 | 0.65 | 0.281 | 1 | 0.404 | 0.363 | 0.271 | 0.838
12 | Cc1c2c(nn1C)CSCc1cc(n(C)n1)CSc1cc(c3ccccc3c1)OCCCc1c(C(=O)O)n(C)c3c-2c(Cl)ccc13 [AZD5991] + C[C@@H]1COCCN1C2=NC(=NC(=C2)C3(CC3)[S@](=N)(=O)C)C4=C5C=CNC5=NC=C4 [AZD6738] (first compound max 1 µM, 7x7, partner max 10 µM) | 0.747 | 0.53 | 0.504 | 0.69 | 1 | 0.978 | 0.686 | 0.55 | 0.678 | 1 | 1 | 0.939 | 0.561 | 0.873 | 0.675 | 1 | 0.574 | 0.632 | 0.985 | 0.854
13 | CN(C)CCCOc1ccc(-c2ccc3ncc4c(c3c2)n(C2CCOCC2)c(=O)n4C)cn1 [AZD0156] + C[C@@H]1COCCN1C2=NC(=NC(=C2)C3(CC3)[S@](=N)(=O)C)C4=C5C=CNC5=NC=C4 [AZD6738] (first compound max 1 µM, 7x7, partner max 10 µM) | 0.462 | 0.552 | 0.522 | 0.727 | 0.953 | 0.877 | 0.699 | 0.649 | 0.685 | 0.908 | 0.872 | 0.555 | 0.446 | 0.59 | 0.76 | 0.987 | 0.607 | 0.656 | 0.911 | 0.469
